Entries after “also recorded” stand apart in the source; their conditions may differ.
Legend:
[1] = test system: human hepatocytes; experiment: Metabolite identification after incubation of 5-MeO-DMT with human hepatocytes; conditions: 5-MeO-DMT free base 10 μM, up to 120 minutes
Description: For incubations with cryopreserved hepatocytes, the 2 mM stock solution was diluted with Leibovitz L-15 medium to a concentration of 20 μM or 2 μM. An aliquot (250 μL) of the 20 μM and 2 μM test substance formulations was added to each hepatocyte incubation sample (250 μL), as appropriate, so that the final test substance concentration in the incubations was 10 μM or 1 μM, respectively, and incubations contained less than 1% (v/v) solvent.
Incubations were performed at ca. 37° C. in a shaking water bath (total incubation volume 0.5 mL). For 1 μM, incubations were terminated after 0, 5, 10, 20, 30, 60 and 120 minutes, by the addition of ice-cold acetonitrile (0.5 mL).
The samples were vortex mixed and centrifuged at ca 13,000 rpm for 10 minutes at room temperature. Following centrifugation, the protein-free supernatants were removed for analysis.
Blank control incubations were carried out with Leibovitz L-15 medium in place of the test substance. No cells control samples were performed with Leibovitz L-15 medium in place of hepatocytes. Aliquots of the blank control samples were taken at 120 minutes, while no cells control samples were taken at 0, 30 and 120 for 1 μM incubations and at 0 and 120 minutes for 10 μM incubations.
All 1 μM incubations were performed in duplicate, while all 10 μM incubations were performed in singlet. All samples were stored at −80° C. (nominal) prior to analysis.
Prior to sample analysis a 100 μL aliquot of each sample was evaporated to near dryness under a steady stream of nitrogen at room temperature, and subsequently reconstituted in 50 μL of mobile phase A (0.1% formic acid in water). Each sample (0, 30 and 120-minute, 10 μM) was analysed using accurate mass LC-MS to determine relative levels of parent compound at each time-point, and determine the profile of metabolites formed. Appropriate blank and control samples were also analysed. The 10 and 60-minute, 10 μM incubation samples were not analysed and were stored at −80° C. (nominal).
Data were interrogated for the presence of metabolites by comparison of retention times with the test substance reference standard and based on the accurate masses of potential metabolites using screening software (UNIFI version 1.9.4), and user defined search parameters. To confirm a suspected metabolite, the measured accurate mass of the peak detected in the sample used for structural elucidation had to be within 5 ppm of the theoretical mass in order to confirm the molecular formula.

[2] = test system: human hepatocytes; experiment: Metabolic stability in Hμrel human hepatocyte co-culture model
[3] = 5-MeO-DMT, 5-MIAA and bufotenine in urine, serum and breastmilk of a lactating PPD patient, LC-MS/MS
Description: The second patients was lactating, and, per the clinical trial protocol, breastmilk samples were collected pre-dosing and at multiple timepoints after administration of the last dose. […] Similar analyses were carried out on patient serum and urine samples.

[4] = test system: human plasma protein; experiment: Plasma binding of 5-MIAA (unbound fraction); assay type: in vitro ADME
Description: Binding to human plasma protein was determined. Reported are the unbound fraction (fu) for three replicates as well as the mean unbound fraction, the standard deviation and the mean % recovery (Table 8).

[5] = 1.0 hrs after last dose (6 mg then 12 mg 5-MeO-DMT)

Structure (SMILES): COc1ccc2[nH]cc(CC[N+](C)(C)[O-])c2c1 [5-MeO-DMT-N-oxide]
- Relative Proportion of compound after incubation of 5-MeO-DMT [1]: 1%

Structure (SMILES): COc1ccc2[nH]cc(CCO)c2c1 [5-methoxytryptophol, 5-Methoxyindole-3-ethanol]
- Relative Proportion of compound after incubation of 5-MeO-DMT [1]: 25%
- relative LC/MS peak area ([2]; 1 μM Stromal cells, 0 h): 100%
- relative LC/MS peak area ([2]; 1 μM Stromal cells, 4 h): 97%
- relative LC/MS peak area ([2]; 1 μM Stromal cells, 8 h): 107%
- relative LC/MS peak area ([2]; 1 μM Stromal cells, 24 h): 94%
- relative LC/MS peak area ([2]; 1 μM Stromal cells, 48 h): 102%
- relative LC/MS peak area ([2]; 1 μM Stromal cells, 72 h): 104%
- relative LC/MS peak area ([2]; 10 μM Stromal cells, 0 h): 100%
- relative LC/MS peak area ([2]; 10 μM Stromal cells, 4 h): 99%
- relative LC/MS peak area ([2]; 10 μM Stromal cells, 8 h): 105%
- relative LC/MS peak area ([2]; 10 μM Stromal cells, 24 h): 86%
- relative LC/MS peak area ([2]; 10 μM Stromal cells, 48 h): 98%
- relative LC/MS peak area ([2]; 10 μM Stromal cells, 72 h): 104%
- metabolic turnover ([2]; human hepatocytes): high metabolic turnover
- half-life ([2]; human hepatocytes, 1 μM): 2.37 h
- in vitro intrinsic clearance ([2]; human hepatocytes, 1 μM): 16.2 μl/min/million cells
- disappearance with stromal cell controls ([2]; stromal cell controls): no disappearance

Structure (SMILES): CN(C)CCc1c[nH]c2ccc(O)cc12 [Bufotenine]
- Relative Proportion of compound after incubation of 5-MeO-DMT [1]: 5%
- Breastmilk concentration [3, 5]: BLQ (BLQ: Below limit of quantification. The lower limit of quantification is 25 pg/ml for both 5-MeO-DMT and 5-MIAA in both serum and breastmilk; it is 25 pg/ml in urine for 5-MeO-DMT and 250 pg/ml for 5-MIAA in urine.)
- Serum concentration [3, 5]: BLQ (BLQ: Below limit of quantification. The lower limit of quantification is 25 pg/ml for both 5-MeO-DMT and 5-MIAA in both serum and breastmilk; it is 25 pg/ml in urine for 5-MeO-DMT and 250 pg/ml for 5-MIAA in urine.)
- Breastmilk concentration ([3]; 2.5 hrs after last dose): BLQ (BLQ: Below limit of quantification. The lower limit of quantification is 25 pg/ml for both 5-MeO-DMT and 5-MIAA in both serum and breastmilk; it is 25 pg/ml in urine for 5-MeO-DMT and 250 pg/ml for 5-MIAA in urine.)
- Serum concentration ([3]; 2.5 hrs after last dose): BLQ (BLQ: Below limit of quantification. The lower limit of quantification is 25 pg/ml for both 5-MeO-DMT and 5-MIAA in both serum and breastmilk; it is 25 pg/ml in urine for 5-MeO-DMT and 250 pg/ml for 5-MIAA in urine.)
- Urine concentration ([3]; 2.5 hrs after last dose): 32.3 pg/mL
- Breastmilk concentration ([3]; 8.5 hrs after last dose): BLQ (BLQ: Below limit of quantification. The lower limit of quantification is 25 pg/ml for both 5-MeO-DMT and 5-MIAA in both serum and breastmilk; it is 25 pg/ml in urine for 5-MeO-DMT and 250 pg/ml for 5-MIAA in urine.)
- Urine concentration ([3]; 8.5 hrs after last dose): BLQ (BLQ: Below limit of quantification. The lower limit of quantification is 25 pg/ml for both 5-MeO-DMT and 5-MIAA in both serum and breastmilk; it is 25 pg/ml in urine for 5-MeO-DMT and 250 pg/ml for 5-MIAA in urine.)
- Breastmilk concentration ([3]; 24.0 hrs after last dose): BLQ (BLQ: Below limit of quantification. The lower limit of quantification is 25 pg/ml for both 5-MeO-DMT and 5-MIAA in both serum and breastmilk; it is 25 pg/ml in urine for 5-MeO-DMT and 250 pg/ml for 5-MIAA in urine.)
- Serum concentration ([3]; 24.0 hrs after last dose): BLQ (BLQ: Below limit of quantification. The lower limit of quantification is 25 pg/ml for both 5-MeO-DMT and 5-MIAA in both serum and breastmilk; it is 25 pg/ml in urine for 5-MeO-DMT and 250 pg/ml for 5-MIAA in urine.)
- Urine concentration ([3]; 24.0 hrs after last dose): BLQ (BLQ: Below limit of quantification. The lower limit of quantification is 25 pg/ml for both 5-MeO-DMT and 5-MIAA in both serum and breastmilk; it is 25 pg/ml in urine for 5-MeO-DMT and 250 pg/ml for 5-MIAA in urine.)
- Breastmilk concentration ([3]; 120.0 hrs after last dose): BLQ (BLQ: Below limit of quantification. The lower limit of quantification is 25 pg/ml for both 5-MeO-DMT and 5-MIAA in both serum and breastmilk; it is 25 pg/ml in urine for 5-MeO-DMT and 250 pg/ml for 5-MIAA in urine.)
- Serum concentration ([3]; 120.0 hrs after last dose): BLQ (BLQ: Below limit of quantification. The lower limit of quantification is 25 pg/ml for both 5-MeO-DMT and 5-MIAA in both serum and breastmilk; it is 25 pg/ml in urine for 5-MeO-DMT and 250 pg/ml for 5-MIAA in urine.)
- Urine concentration ([3]; 120.0 hrs after last dose): BLQ (BLQ: Below limit of quantification. The lower limit of quantification is 25 pg/ml for both 5-MeO-DMT and 5-MIAA in both serum and breastmilk; it is 25 pg/ml in urine for 5-MeO-DMT and 250 pg/ml for 5-MIAA in urine.)
- detection in serum and breastmilk ([3]; any time point): absence of bufotenine; also recorded: not detected
- Breastmilk concentration ([3]; −24.0 hrs (pre-dosing)): BLQ (BLQ: Below limit of quantification. The lower limit of quantification is 25 pg/ml for both 5-MeO-DMT and 5-MIAA in both serum and breastmilk; it is 25 pg/ml in urine for 5-MeO-DMT and 250 pg/ml for 5-MIAA in urine.)
- Serum concentration ([3]; −24.0 hrs (pre-dosing)): BLQ (BLQ: Below limit of quantification. The lower limit of quantification is 25 pg/ml for both 5-MeO-DMT and 5-MIAA in both serum and breastmilk; it is 25 pg/ml in urine for 5-MeO-DMT and 250 pg/ml for 5-MIAA in urine.)
- Urine concentration ([3]; −24.0 hrs (pre-dosing)): BLQ (BLQ: Below limit of quantification. The lower limit of quantification is 25 pg/ml for both 5-MeO-DMT and 5-MIAA in both serum and breastmilk; it is 25 pg/ml in urine for 5-MeO-DMT and 250 pg/ml for 5-MIAA in urine.)

Structure (SMILES): CC(=O)CC(c1ccccc1)c1c(O)c2ccccc2oc1=O (centres unmarked) [Warfarin, reference compound]
- Mean % Recovery [4]: 78.1%
- Mean fu [4]: 0.0377
- unbound fraction (fu), Replicate 1 [4]: 0.0418
- unbound fraction (fu), Replicate 2 [4]: 0.0356
- unbound fraction (fu), Replicate 3 [4]: 0.0358

Reference: US20240108602A1, “TREATMENT OF MENTAL DISORDERS” (GH Research Ireland Limited, priority 2022, published 2024)
